In patent publication US20110118239A1, “PREPARATION AND ENANTIOMERIC SEPARATION OF 7-(3-PYRIDINYL)-1,7-DIAZASPIRO[4.4]NONANE AND NOVEL SALT FORMS OF THE RACEMATE AND ENANTIOMERS” (Targacept, Inc., priority 2008, published 2011):
pEC50, pKi: −log10 of the molar value. Read-outs that look alike come from different tables or passages of the source.

Key:
Rat α4β2 = Rat α4β2 (Rattus norvegicus, UniProt P09483+P12390); test: Binding to rat α4β2 NNR (Ki)
Method: (§1) Binding and function of the compounds to relevant receptor sites was determined in accordance with the techniques described in PCT WO 2008/057938. Inhibition constants (Ki values), reported in nM, were calculated from the IC50 values using the method of Cheng et al., Biochem. Pharmacol. 22: 3099 (1973). […] Thus, the compounds of the present invention are selective modulators of the α4β2 NNR subtype.

Human α4β2 = Human α4β2 (Homo sapiens, UniProt P17787+P43681); test: Binding to human α4β2 NNR (Ki)
Method: as §1

Rat α7 = Rat α7 (Rattus norvegicus, UniProt Q05941); test: Binding to rat α7 NNR (Ki)
Method: as §1

human α4β2 NNRs = biological target: T1, human α4β2 NNRs (Homo sapiens, UniProt P17787+P43681); test: Function at human α4β2 NNRs, SH-EP1/human a4b2 cells, FLIPR calcium; format: cell-based
T1 construct: expressed in transfected cells; host or cells: SH-EP1
Method: as §1
After the loading period, plates were equilibrated to room temperature and the cells exposed to the test article ([…]) or nicotine or buffer alone on a FLIPR (Molecular Devices). Fluorescence (at 485 nm) was monitored throughout the experiment. The test article change in fluorescence was compared to both a positive control (10 μM nicotine) and a negative control (buffer alone) to determine the percent response relative to that of nicotine.

Human Ganglion = Human Ganglion (Homo sapiens, UniProt P30926+P32297); test: Function at human ganglion subtype, single point 100 μM; format: cell-based
Method: as §1

Human Muscle = Human Muscle (Homo sapiens, UniProt P02708+P07510+Q07001); test: Function at human muscle subtype, single point 100 μM; format: cell-based
Method: as §1

nicotinic = test: Standard receptor screen at 10 μM: nicotinic; format: binding; details: hydrochloride salt
Method: (§2) Both Compound A, (R)-7-(3-pyridinyl)-1,7-diazaspiro[4.4]nonane, and Compound B, (S)-7-(3-pyridinyl)-1,7-diazaspiro[4.4]nonane, each as their hydrochloride salts, were screened, at 10 μM concentration, against a standard set of receptors. […] Thus, the two stereoisomers differentiate from one another in terms of their non-nicotinic receptor binding characteristics. This differentiation is believed to translate into a differentiation between the ability of each of (R)-7-(3-pyridinyl)-1,7-diazaspiro[4.4]nonane and (S)-7-(3-pyridinyl)-1,7-diazaspiro[4.4]nonane to treat various disease states, including, for example, the ability of Compound A to enhance desensitization of α4β2 NNRs.

histamine H1 = histamine H1 (Homo sapiens, UniProt P35367); test: Standard receptor screen at 10 μM: histamine H1; format: binding; details: hydrochloride salt, read-out: inhibition at histamine H1 receptors
Method: as §2

rat = test: Anxiety model, elevated plus maze (EPM); format: in vivo; details: 0.02, 0.06, and 0.21 mg/kg i.p. 30 minutes before the test, FIG. 1
From the text: The method, which detects anxiolytic activity, follows that described by Handley S. L. and Mithani S., Effects of alpha-adrenoceptor agonists and antagonists in a maze-exploration model of fear-motivated behaviour, Naunyn-Schmied. Arch. Pharmacol., 327, 1-5, 1984.
Rodents avoid open spaces (the open arms of an elevated plus-maze). Anxiolytics increase exploratory activity in the open arms. The maze consisted of 4 arms of equal length and width arranged in the form of a plus sign (+). Two opposite arms were enclosed by walls (closed arms). The two other arms had no walls (open arms). The maze was raised above the floor. A rat was placed in the centre of the plus-maze and left to explore for 5 minutes. The number of entries into the open and closed arms and the time spent in the open arms were recorded.
Ten (10) rats were studied per group. The test was performed blind. Compound A was evaluated at 0.02, 0.06, and 0.21 mg/kg, administered i.p. 30 minutes before the test, and compared with a vehicle control group. Clobazam, administered under the same experimental conditions, was used as reference substance. The experiment therefore included […].
Data were analyzed by comparing the treated groups with the control group using unpaired tests.

A/J mice = test: Depression model, tail suspension (TS); format: in vivo; details: 0.1 mg/kg (p-hydroxybenzoate), 10 min test
Method: On the day of the test, A/J mice were brought to acclimate to the testing room for one hour. Eight animals were tested in each run. Following pretreatment with vehicle, desipramine (20 mg/kg) or Compound A, p-hydroxybenzoate (0.1, 0.3, and 1 mg/kg), a piece of transparent (Scotch) tape was attached to the tail of each mouse from about mid-tail with approximately 2 cm of tape past the end of the tail. The mice were then placed in the tail suspension chambers (white polyvinylchloride cubicles measuring 33×33×31.75 cm; Med Associates Inc., St Albans, Vt.). The mice were suspended from the hook of the TS force transducer via the tail tape. The force transducer transmitted the movements of the mouse to a recording device connected to a computer. Immobility time, struggle time, and intensity were automatically recorded for each min during the 10 min test period. Upon completion of the TS test, the mice were returned to their home cage and then to the animal colony. The TS chambers were cleaned between sessions. Data were analyzed by repeated measures and one-way analysis of variance (ANOVA) followed by Fisher PLSD post-hoc comparisons. An effect was considered significant if p<0.05.

[1] = system: animal models of depression and anxiety; test: Validated animal models of depression and anxiety (summary statement); details: in vivo
[2] = Single rising dose (SRD) study of Compound C, plasma pharmacokinetics of racemate and enantiomers; format: in vivo; details: for t1/2 (mean) / half-life / Cmax / Tmax / AUC(0-inf): plasma; for t1/2 (mean): Table 3; for half-life / Cmax / Tmax / AUC(0-inf): human; for AUC(0-inf): read-out: AUCinf (mean); for share of total exposure (Cmax and AUCinf) compared to the racemate, Compound C: oral administration of Compound C
Method: A single, rising dose (SRD) study was performed with Compound C (the racemate). Plasma samples were analyzed for the content of the two enantiomers, Compound A (substantially pure R), Compound B (substantially pure S). Three dose groups (Compound C) were analyzed, 50, 100, and 400 mg, and four subjects were randomly selected from the 6 subjects tested to receive active treatment in each cohort examined in the SRD study.

rats = test: Seizure/convulsion induction after acute dose, rats; format: in vivo
Method: For example, preclinically, Compound C induced seizures following acute doses:
Likewise, Compound B induced convulsion in 1/6 male rats following an acute oral dose of 300 mg/kg.
In fact, the effect of Compound A was not statistically different from the vehicle control.

histamine H3 = histamine H3 (Homo sapiens, UniProt Q9Y5N1); test: Standard receptor screen at 10 μM: histamine H3; format: binding; details: hydrochloride salt, read-out: inhibition at histamine H3 receptors
Method: as §2

muscarinic M1 = biological target: T2, muscarinic M1 (Homo sapiens, UniProt P11229); test: Standard receptor screen at 10 μM: muscarinic M1; format: binding; details: hydrochloride salt, read-out: inhibition at muscarinic M1 receptors
T2 sequence (P11229 1-460): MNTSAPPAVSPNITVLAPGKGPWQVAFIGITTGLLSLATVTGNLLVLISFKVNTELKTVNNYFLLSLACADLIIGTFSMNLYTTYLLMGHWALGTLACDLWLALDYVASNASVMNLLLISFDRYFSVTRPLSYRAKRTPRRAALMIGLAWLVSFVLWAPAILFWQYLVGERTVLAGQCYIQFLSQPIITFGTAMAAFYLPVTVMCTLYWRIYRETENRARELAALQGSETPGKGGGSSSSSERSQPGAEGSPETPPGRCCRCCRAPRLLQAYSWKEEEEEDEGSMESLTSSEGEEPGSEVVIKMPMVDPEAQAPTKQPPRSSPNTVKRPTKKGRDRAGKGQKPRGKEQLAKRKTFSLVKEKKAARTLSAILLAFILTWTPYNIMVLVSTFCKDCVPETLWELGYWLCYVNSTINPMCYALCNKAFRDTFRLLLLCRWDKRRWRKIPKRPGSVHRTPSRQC
Method: as §2

[3] = system: non-selective central muscarinic; test: Standard receptor screen at 10 μM: non-selective central muscarinic; format: binding; details: hydrochloride salt
Method: as §2

[4] = system: non-selective peripheral muscarinic; test: Standard receptor screen at 10 μM: non-selective peripheral muscarinic; format: binding; details: hydrochloride salt
Method: as §2

non-elective sigma = test: Standard receptor screen at 10 μM: sigma; format: binding; details: hydrochloride salt
Method: as §2

mice = test: Seizure induction after acute dose, mice; format: in vivo; details: female mice; acute oral dose of 400 mg/kg
From the text: For example, preclinically, Compound C induced seizures following acute doses: […]

[5] = SH-EP1/human a4b2 cells, FLIPR calcium, relative to 10 μM nicotine, read-out: Human α4β2 Emax (% of nic resp)
[6] = po, 50 mg Compound C (n = 4), read-out: Mean (SD) Terminal Elimination Half-life (converted)
[7] = po, 100 mg Compound C (n = 4), read-out: Mean (SD) Terminal Elimination Half-life (converted)
[8] = po, 400 mg Compound C (n = 4), read-out: Mean (SD) Terminal Elimination Half-life (converted)
[9] = SH-EP1/human a4b2 cells, FLIPR calcium, read-out: Human α4β2 EC50

Chain of Human Muscle (P02708 21-457): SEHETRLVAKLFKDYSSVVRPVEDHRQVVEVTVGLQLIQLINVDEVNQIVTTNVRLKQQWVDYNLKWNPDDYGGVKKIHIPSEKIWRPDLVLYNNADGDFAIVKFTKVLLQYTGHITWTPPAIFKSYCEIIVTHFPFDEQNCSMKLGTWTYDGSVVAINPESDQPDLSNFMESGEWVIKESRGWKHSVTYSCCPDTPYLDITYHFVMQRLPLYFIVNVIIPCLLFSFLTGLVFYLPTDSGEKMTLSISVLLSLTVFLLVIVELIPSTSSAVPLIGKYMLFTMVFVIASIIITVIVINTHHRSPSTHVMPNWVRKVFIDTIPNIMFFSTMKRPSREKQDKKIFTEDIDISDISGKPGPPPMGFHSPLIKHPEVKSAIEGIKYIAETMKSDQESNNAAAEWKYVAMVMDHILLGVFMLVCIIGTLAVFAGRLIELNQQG
Chain of Human Muscle (P11230 24-501 partner): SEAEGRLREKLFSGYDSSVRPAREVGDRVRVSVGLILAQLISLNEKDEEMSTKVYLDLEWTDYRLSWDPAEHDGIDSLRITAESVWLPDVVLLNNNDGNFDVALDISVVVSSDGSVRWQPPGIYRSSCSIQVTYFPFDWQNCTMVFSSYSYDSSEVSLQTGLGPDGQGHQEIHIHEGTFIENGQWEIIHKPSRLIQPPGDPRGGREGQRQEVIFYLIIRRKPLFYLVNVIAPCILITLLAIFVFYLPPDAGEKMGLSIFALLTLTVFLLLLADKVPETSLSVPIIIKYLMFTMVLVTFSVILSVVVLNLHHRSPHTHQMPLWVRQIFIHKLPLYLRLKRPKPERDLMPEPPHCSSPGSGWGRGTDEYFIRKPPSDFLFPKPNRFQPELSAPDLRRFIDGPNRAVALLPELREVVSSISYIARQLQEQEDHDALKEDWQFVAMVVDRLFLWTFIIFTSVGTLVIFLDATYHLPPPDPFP
Chain of Human Muscle (P07510 23-517): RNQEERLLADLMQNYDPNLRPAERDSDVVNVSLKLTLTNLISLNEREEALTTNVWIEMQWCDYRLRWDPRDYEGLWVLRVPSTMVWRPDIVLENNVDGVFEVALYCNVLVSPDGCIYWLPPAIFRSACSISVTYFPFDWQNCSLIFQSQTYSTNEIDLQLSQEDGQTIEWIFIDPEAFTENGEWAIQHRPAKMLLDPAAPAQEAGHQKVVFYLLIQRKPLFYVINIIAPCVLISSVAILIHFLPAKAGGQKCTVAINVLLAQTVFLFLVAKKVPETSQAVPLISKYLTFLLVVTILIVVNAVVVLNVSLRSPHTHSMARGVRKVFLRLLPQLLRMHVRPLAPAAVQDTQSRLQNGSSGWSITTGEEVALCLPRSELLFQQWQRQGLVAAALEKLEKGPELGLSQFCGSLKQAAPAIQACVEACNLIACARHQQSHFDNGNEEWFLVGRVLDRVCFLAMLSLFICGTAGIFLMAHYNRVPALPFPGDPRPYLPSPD
Chain of Human Muscle (Q07001 22-517): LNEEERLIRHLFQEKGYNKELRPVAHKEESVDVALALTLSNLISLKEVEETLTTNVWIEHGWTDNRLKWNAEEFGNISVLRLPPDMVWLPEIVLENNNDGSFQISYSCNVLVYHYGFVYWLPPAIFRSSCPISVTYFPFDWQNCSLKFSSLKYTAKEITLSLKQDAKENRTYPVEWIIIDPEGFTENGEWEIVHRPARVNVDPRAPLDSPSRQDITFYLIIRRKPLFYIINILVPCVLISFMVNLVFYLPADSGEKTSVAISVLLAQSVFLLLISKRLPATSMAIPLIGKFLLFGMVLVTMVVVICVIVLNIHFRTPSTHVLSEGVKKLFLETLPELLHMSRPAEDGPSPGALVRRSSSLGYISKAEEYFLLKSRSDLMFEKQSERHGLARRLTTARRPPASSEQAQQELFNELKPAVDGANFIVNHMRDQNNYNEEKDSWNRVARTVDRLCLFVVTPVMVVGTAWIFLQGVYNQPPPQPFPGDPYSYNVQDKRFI
Chain of Human Ganglion (P32297 32-505): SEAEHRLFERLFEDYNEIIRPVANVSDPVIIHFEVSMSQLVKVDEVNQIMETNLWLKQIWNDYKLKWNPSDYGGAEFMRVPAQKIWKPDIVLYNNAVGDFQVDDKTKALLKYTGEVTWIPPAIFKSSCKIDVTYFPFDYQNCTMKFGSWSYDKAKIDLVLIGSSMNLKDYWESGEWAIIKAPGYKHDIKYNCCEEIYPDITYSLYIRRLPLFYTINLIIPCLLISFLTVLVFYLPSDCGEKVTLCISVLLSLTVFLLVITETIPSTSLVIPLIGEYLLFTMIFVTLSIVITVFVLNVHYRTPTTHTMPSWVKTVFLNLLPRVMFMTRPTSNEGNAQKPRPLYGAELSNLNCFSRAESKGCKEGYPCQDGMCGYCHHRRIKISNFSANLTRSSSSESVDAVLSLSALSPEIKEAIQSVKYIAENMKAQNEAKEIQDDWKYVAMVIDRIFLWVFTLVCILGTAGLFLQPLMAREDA
Chain of Human Ganglion (P30926 22-498): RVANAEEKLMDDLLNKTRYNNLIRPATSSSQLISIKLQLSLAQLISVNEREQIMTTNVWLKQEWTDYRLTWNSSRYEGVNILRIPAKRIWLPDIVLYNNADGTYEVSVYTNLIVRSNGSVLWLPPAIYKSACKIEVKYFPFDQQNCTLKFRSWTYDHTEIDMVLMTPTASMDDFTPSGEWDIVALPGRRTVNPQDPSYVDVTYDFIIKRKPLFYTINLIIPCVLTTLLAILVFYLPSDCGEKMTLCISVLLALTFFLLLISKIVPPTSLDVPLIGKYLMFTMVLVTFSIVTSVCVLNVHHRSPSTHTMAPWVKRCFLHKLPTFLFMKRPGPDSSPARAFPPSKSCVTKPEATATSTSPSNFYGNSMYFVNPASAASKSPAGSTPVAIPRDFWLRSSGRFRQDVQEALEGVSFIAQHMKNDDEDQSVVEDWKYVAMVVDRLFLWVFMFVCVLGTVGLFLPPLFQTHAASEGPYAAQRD
T1 sequence (P43681 29-627 limits assumed): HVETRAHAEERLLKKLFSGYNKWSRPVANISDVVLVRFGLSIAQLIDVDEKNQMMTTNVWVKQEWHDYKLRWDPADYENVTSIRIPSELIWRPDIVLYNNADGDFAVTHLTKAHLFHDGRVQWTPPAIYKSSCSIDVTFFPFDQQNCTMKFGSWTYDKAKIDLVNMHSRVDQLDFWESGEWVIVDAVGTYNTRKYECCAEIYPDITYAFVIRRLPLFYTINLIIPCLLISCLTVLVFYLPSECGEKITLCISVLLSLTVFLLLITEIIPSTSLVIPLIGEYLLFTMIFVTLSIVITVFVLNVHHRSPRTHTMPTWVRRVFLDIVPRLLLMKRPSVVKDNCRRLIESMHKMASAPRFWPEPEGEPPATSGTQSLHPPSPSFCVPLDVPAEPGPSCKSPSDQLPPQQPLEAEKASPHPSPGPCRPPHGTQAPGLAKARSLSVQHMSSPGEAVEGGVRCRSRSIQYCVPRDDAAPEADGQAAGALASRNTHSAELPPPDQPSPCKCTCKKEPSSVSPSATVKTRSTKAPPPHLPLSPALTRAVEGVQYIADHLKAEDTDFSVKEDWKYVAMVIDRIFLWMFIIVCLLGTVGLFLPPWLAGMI
T1 sequence (P17787 26-502): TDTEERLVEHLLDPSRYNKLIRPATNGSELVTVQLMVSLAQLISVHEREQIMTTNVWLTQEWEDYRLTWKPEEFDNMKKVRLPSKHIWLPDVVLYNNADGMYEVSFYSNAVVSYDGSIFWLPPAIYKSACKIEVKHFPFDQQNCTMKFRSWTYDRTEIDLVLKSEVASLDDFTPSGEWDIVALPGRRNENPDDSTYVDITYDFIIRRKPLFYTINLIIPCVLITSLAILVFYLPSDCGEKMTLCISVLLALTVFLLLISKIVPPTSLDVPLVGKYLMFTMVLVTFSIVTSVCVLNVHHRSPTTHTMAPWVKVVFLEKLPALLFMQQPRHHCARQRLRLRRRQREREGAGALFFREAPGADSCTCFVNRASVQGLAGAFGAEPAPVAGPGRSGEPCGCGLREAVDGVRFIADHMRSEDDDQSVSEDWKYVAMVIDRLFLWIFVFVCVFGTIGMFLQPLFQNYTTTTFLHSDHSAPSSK
Chain of Human α4β2 (P43681 29-627 limits assumed): as the sequence (P43681 29-627 limits assumed) above
Chain of Human α4β2 (P17787 26-502): as the sequence (P17787 26-502) above
Chain of Rat α7 (Q05941 23-502): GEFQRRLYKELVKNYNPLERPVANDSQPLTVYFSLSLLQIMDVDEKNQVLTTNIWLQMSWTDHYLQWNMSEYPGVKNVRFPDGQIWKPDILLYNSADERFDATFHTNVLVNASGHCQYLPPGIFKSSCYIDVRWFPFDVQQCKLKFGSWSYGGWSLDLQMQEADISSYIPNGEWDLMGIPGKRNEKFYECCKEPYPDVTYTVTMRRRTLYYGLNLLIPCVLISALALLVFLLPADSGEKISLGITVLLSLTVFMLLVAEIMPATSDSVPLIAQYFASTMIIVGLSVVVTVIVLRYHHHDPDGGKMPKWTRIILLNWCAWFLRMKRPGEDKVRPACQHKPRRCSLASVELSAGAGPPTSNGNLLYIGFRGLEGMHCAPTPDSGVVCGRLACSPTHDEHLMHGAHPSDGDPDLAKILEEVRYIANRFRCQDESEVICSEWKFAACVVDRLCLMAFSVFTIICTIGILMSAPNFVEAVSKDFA
Chain of histamine H1 (P35367 whole entry): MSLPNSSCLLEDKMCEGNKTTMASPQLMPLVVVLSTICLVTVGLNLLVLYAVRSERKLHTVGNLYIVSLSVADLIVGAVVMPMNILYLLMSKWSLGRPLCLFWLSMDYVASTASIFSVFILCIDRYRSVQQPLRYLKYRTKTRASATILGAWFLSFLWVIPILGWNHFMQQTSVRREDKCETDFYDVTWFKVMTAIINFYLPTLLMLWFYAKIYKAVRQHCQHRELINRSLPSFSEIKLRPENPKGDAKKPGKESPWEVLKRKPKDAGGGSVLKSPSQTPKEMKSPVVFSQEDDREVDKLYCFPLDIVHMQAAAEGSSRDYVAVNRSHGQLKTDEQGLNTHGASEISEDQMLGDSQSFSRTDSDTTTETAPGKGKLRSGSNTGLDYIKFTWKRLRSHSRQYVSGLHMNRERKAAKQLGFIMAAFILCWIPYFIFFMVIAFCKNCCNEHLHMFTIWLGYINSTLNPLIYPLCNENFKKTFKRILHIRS

Compound | pKi (Rat α4β2; read-out: Rat α4β2 Ki) | pKi (Human α4β2; read-out: Human α4β2 Ki) | Emax (human α4β2 NNRs; [5]) | Human Ganglion SP (100 μM) (Human Ganglion) | Human Muscle SP (100 μM) (Human Muscle) | t1/2 (mean) ([2]; 50 mg Compound C (n = 4)) | t1/2 (mean) ([2]; 100 mg Compound C (n = 4)) | t1/2 (mean) ([2]; 400 mg Compound C (n = 4)) | Cmax ([2]; po, 50 mg Compound C (n = 4)) | Tmax ([2]; po, 50 mg Compound C (n = 4)) | AUC(0-inf) ([2]; po, 50 mg Compound C (n = 4)) | half-life [2, 6] | Cmax ([2]; po, 100 mg Compound C (n = 4)) | Tmax ([2]; po, 100 mg Compound C (n = 4)) | AUC(0-inf) ([2]; po, 100 mg Compound C (n = 4)) | half-life [2, 7] | Cmax ([2]; po, 400 mg Compound C (n = 4)) | Tmax ([2]; po, 400 mg Compound C (n = 4)) | AUC(0-inf) ([2]; po, 400 mg Compound C (n = 4)) | half-life [2, 8] | further results
c1cncc(N2CC[C@]3(CCCN3)C2)c1 [Compound A, (R)-7-(3-pyridinyl)-1,7-diazaspiro[4.4]nonane] | 7.13 | 7.40 | 9% | 3 | 6 | 27.5 h | 23.7 h | 22.4 h | 10.3 ng/mL | 4.38 h | 256 ng·h/mL | 27.5 h | 22.7 ng/mL | 3.25 h | 451 ng·h/mL | 23.7 h | 163 ng/mL | 2 h | 2420 ng·h/mL | 22.4 h | pKi (Rat α7; read-out: Rat α7 Ki): 5.27; Emax (human α4β2 NNRs; SH-EP1, read-out: Emax at human α4β2 NNRs): 9%; pEC50 (human α4β2 NNRs; read-out: EC50 at human α4β2 NNRs): 4.08; inhibition at nicotinic receptors (nicotinic): 99 % inhibition; inhibition at 10 µM (histamine H1): 66%; Activity in the EPM (rat): anxiolytic-like activity; struggle intensity compared to saline (A/J mice): increased struggle intensity; total time immobile compared to saline (A/J mice): decreased total time immobile; Efficacy in multiple validated animal models of depression and anxiety [1]: demonstrated efficacy; half-life ([2]; oral, after Compound C 50, 100, 400 mg, read-out: terminal elimination half-life longer than that of Compound B (converted)): ~6 h; share of total exposure (Cmax and AUCinf) compared to the racemate, Compound C [2]: approximately half; effect on seizure induction (rats; under the same conditions (as Compound B: acute oral dose of 300 mg/kg, male rats)): no effect on seizure induction
c1cncc(N2CC[C@@]3(CCCN3)C2)c1 [Compound B, (S)-7-(3-pyridinyl)-1,7-diazaspiro[4.4]nonane] | 7.09 | 7.52 | 87% | 18 | <1 | 21.0 h | 17.8 h | 16.6 h | 12.1 ng/mL | 3.13 h | 237 ng·h/mL | 21 h | 24.6 ng/mL | 2.75 h | 364 ng·h/mL | 17.8 h | 158 ng/mL | 2 h | 2130 ng·h/mL | 16.6 h | pKi (Rat α7; read-out: Rat α7 Ki): < 5.00; pEC50 (human α4β2 NNRs; [9]): 5.41; inhibition at 10 µM (histamine H3): 58%; inhibition at 10 µM (muscarinic M1): 53%; inhibition at non-selective central muscarinic receptors [3]: 84 % inhibition; inhibition at non-selective peripheral muscarinic receptors [4]: 84 % inhibition; inhibition at nicotinic receptors (nicotinic): 99 % inhibition; inhibition at non-elective sigma receptors (non-elective sigma): 56 % inhibition; Efficacy in multiple validated animal models of depression and anxiety [1]: failed to demonstrate activity; share of total exposure (Cmax and AUCinf) compared to the racemate, Compound C [2]: approximately half; induced convulsion (animals affected) (rats; male rats, acute oral dose of 300 mg/kg): 1/6
c1cncc(N2CCC3(CCCN3)C2)c1 (racemic) [Compound C, 7-(3-pyridinyl)-1,7-diazaspiro[4.4]nonane] |  |  | 43% | 15 | 22 | 24.8 h | 21.1 h | 18.5 h | 21.8 ng/mL | 4.38 h | 473 ng·h/mL | 24.8 h | 44.7 ng/mL | 31.1 h | 741 ng·h/mL | 21.1 h | 295 ng/mL | 2 h | 3680 ng·h/mL | 18.5 h | pKi (Rat α4β2): 7.17; pKi (Human α4β2): 7.47; pKi (Rat α7): < 5.00; pEC50 (human α4β2 NNRs; [9]): 5.04; induced seizures (animals affected) (mice): 1/5 female mice; induced seizures (animals affected) (rats; female rats, acute IV dose of 100 mg/kg): 4/5 female rats; induced seizures (animals affected) (rats; female rats, acute oral dose of 200 mg/kg): 1/5 female rats; induced seizures (animals affected) (rats; female rats, acute oral dose of 800 mg/kg): 1/5 female rats; induced seizures (animals affected) (rats; male rats, acute IV dose of 100 mg/kg): 1/5 male rats; induced seizures (animals affected) (rats; male rats, acute oral dose of 800 mg/kg): 1/5 male rats
